Measured values published in US7605270B2, “Polymorphic forms of (S).-tetrahydrofuran-3-yl-3-(3-(3-methoxy-4-(oxazol-5-yl) phenyl) ureido) benzylcarbamate” (Vertex Pharmaceuticals Incorporated, priority 2005, dated 2009).
Counter-ions that a name gives are not always drawn.

Tests used:
IMPDH human type II = IMPDH human type II (Homo sapiens, UniProt P12268); conditions: general statement; disclosed in the Compound 1 patents; cited from earlier work
[1] = Maturation study of Form A1: slurry in solvent, excess solid analysed by XRPD; type: physicochemical; conditions: about 10 mg slurried in 500 μl solvent, shaken at 25-30° C. for 24 hrs
Protocol: X-ray powder diffraction patterns for the samples were acquired on a Bruker AXS/Siemens D5000 diffractometer using CuKα radiation (40 kV, 40 mA), ?-? goniometer, automatic divergence and receiving slits, a graphite secondary monochromator and a scintillation counter. The data were collected over an angular range of 2° to 42° 2? in continuous scan mode using a step size of 0.02° 2? and a step time of 1 second. Samples run under ambient conditions were prepared as flat plate specimens using powder as received without grinding. Approximately 25-50 mg of the sample was gently packed into 12 mm diameter, 0.5 mm deep cavities cut into polished, zero-background (510) silicon wafers (The Gem Dugout, 1652 Princeton Drive, Pennsylvania State College, PA 16803, USA). All specimens were run both stationary and rotated in their own plane during analysis. A further specimen was run using silicon powder as an internal standard to correct for any peak displacement. Samples run under non-ambient conditions were packed into a stainless steel cavity sample holder equipped with a Pt 100 thermocouple for temperature monitoring. Low temperature data were recorded using an Anton Paar TTK450 variable temperature camera attached to the Bruker AXS/Siemens D5000 diffractometer. […] The excess solid was removed by filtration and analysed by XRPD.

[2] = Hygroscopicity: water/weight uptake at 90% relative humidity; type: physicochemical; conditions: for water uptake (weight uptake): at 90% relative humidity (RH) at 25° C.; for hygroscopicity (in words): judged from uptake at 90% relative humidity

COc1cc(NC(=O)Nc2cccc(CNC(=O)O[C@H]3CCOC3)c2)ccc1-c1cnco1 [Compound 1, (S)-tetrahydrofuran-3-yl 3-(3-(3-methoxy-4-(oxazol-5-yl)phenyl)ureido)benzylcarbamate]
IMPDH inhibition (in words) (IMPDH human type II): potent IMPDH inhibitor

COc1cc(NC(=O)Nc2cccc(CNC(=O)O[C@H]3CCOC3)c2)ccc1-c1cnco1 [Form A1, (S)-tetrahydrofuran-3-yl 3-(3-(3-methoxy-4-(oxazol-5-yl)phenyl)ureido)benzylcarbamate]
XRPD patterns observed after maturation, all 31 solvents [1]: consistent with the pattern of Form A1 | water uptake (weight uptake) [2]: less than 0.5% | hygroscopicity (in words) [2]: non-hygroscopic

COc1cc(NC(=O)Nc2cccc(CNC(=O)O[C@H]3CCOC3)c2)ccc1-c1cnco1 [Form C3, (S)-tetrahydrofuran-3-yl 3-(3-(3-methoxy-4-(oxazol-5-yl)phenyl)ureido)benzylcarbamate]
water uptake (weight uptake) [2]: 3% | hygroscopicity (in words) [2]: moderately hygroscopic

COc1cc(NC(=O)Nc2cccc(CNC(=O)O[C@H]3CCOC3)c2)ccc1-c1cnco1 [Form E5 HCl salt, (S)-tetrahydrofuran-3-yl 3-(3-(3-methoxy-4-(oxazol-5-yl)phenyl)ureido)benzylcarbamate, HCl salt]
uptake ([2]; at 90% relative humidity): 22 % w/w | hygroscopicity (in words) ([2]; HCl salt): highly hygroscopic
